Our source for the Ki values is patent US10501461B2, “Tyrosine amide derivatives as Rho-kinase inhibitors” (CHIESI FARMACEUTICI S.P.A., priority 2017, dated 2019).

pKi: −log10 of the molar value.

Test [1] has as its target Rho kinase 1 (ROCK-I) (Homo sapiens, UniProt Q13464). Nature of the test: In vitro Rho kinase inhibitory activity assay (ADP-Glo), Rho kinase 1. The test is classed as biochemical. Conditions: 10 μM ATP, 25° C., expressed as range of activity. An outline of the steps:
(§1)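 Human ROCK1 or ROCK2 was preincubated with compound for 30 min at 25 °C in 40 mM Tris pH7.5, 20 mM MgCl2, 0.1 mg/ml BSA, 50 μM DTT, 2.5 μM Myelin Basic Protein, 1% DMSO final. Reactions ran 1 hour with 10 μM ATP final; ADP-Glo luminescence gave IC50 by sigmoidal fit, Ki by Cheng-Prusoff.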

The target in test [2] is Rho kinase 2 (ROCK-II) (Homo sapiens, UniProt O75116). Nature of the test: In vitro Rho kinase inhibitory activity assay (ADP-Glo), Rho kinase 2. Type of test: biochemical. Conditions: 10 μM ATP, 25° C., expressed as range of activity. In outline:
as §1
Background: ADP-Glo turns the ADP formed in a reaction into a luminescent signal.

What is called pKi is the Ki on a negative log10 scale, so that one unit is a factor of ten. Higher therefore signals a low Ki.

Rho kinase 2 (ROCK-II), sequence (O75116 whole entry): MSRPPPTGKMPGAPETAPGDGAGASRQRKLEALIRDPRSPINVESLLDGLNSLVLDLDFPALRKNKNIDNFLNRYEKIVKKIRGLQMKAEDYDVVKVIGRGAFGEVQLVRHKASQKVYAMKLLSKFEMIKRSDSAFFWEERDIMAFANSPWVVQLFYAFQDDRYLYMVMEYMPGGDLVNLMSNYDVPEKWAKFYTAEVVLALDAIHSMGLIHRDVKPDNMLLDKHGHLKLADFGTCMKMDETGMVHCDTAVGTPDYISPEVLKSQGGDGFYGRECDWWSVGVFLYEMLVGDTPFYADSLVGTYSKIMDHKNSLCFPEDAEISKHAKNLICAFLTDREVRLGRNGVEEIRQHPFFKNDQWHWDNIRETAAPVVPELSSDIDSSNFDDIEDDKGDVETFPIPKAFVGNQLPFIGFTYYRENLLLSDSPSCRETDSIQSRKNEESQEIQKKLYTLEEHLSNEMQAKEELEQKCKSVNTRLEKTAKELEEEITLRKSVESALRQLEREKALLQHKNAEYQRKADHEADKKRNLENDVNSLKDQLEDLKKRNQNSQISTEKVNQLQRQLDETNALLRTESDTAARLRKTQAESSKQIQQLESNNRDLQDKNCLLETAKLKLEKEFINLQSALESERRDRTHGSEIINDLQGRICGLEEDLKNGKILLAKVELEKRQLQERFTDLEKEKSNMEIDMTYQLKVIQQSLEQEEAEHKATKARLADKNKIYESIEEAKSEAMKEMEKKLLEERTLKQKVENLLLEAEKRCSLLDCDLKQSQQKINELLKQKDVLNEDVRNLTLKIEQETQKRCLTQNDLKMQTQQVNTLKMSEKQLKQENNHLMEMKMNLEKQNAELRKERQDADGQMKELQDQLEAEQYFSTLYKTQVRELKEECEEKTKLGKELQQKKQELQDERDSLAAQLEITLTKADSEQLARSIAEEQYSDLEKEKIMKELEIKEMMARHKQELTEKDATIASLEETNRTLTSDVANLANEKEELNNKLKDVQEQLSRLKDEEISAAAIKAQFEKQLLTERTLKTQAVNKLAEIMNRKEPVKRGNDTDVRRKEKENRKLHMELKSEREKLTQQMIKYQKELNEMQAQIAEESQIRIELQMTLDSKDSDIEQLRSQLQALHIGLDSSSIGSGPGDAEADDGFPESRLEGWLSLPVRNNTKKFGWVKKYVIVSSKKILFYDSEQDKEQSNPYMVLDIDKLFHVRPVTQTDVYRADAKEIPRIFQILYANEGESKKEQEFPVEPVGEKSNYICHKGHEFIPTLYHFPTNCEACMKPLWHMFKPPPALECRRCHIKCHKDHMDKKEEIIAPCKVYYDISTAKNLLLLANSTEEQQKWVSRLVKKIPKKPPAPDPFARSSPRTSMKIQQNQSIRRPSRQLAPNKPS
Rho kinase 1 (ROCK-I), sequence (Q13464 whole entry): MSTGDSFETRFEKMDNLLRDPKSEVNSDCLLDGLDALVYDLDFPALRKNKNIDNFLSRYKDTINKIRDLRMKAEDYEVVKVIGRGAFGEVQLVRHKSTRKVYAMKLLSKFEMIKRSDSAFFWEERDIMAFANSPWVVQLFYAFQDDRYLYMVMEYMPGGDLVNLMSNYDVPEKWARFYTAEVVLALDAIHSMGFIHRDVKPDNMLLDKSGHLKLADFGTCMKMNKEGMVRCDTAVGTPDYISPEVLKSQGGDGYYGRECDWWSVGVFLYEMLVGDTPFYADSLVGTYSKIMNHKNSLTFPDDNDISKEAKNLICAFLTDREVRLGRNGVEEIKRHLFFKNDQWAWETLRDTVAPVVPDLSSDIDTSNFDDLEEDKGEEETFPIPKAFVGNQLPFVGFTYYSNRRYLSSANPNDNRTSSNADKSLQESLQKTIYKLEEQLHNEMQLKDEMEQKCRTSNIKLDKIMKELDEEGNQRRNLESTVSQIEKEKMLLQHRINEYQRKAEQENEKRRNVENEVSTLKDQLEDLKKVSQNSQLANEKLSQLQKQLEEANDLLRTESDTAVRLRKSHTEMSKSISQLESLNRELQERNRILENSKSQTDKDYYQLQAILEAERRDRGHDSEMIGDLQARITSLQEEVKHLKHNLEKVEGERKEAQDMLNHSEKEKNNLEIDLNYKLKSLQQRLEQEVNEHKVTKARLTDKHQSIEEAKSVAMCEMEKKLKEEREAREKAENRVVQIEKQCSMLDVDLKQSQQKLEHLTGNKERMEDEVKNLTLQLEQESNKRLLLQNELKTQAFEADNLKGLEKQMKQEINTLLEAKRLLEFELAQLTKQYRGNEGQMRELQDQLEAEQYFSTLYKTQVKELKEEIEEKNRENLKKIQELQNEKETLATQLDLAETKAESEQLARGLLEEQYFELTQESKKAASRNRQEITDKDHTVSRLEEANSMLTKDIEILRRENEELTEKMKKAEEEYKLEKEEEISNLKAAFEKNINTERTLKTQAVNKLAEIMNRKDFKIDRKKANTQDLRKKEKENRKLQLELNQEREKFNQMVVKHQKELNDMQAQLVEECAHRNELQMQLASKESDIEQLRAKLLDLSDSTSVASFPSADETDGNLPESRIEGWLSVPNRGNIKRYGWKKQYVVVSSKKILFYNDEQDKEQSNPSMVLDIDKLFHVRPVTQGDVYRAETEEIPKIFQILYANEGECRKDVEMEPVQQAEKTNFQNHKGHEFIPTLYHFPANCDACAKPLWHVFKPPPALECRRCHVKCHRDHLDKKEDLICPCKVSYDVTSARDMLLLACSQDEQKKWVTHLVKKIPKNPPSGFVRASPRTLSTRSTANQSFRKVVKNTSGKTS

`Cc1c[nH]c2nccc(Oc3ccc(C[C@H](N)C(=O)N4CCN(C(=O)c5cnn(C)c5)CC4)cc3F)c12` [Example 175, (S)-2-amino-3-(3-fluoro-4-((3-methyl-1H-pyrrolo[2,3-b]pyridin-4-yl)oxy)phenyl)-1-(4-(1-methyl-1H-pyrazole-4-carbonyl)piperazin-1-yl)propan-1-one]: the pKi in test [1] and in test [2] was over 8.52 each time.

As for `COCCCNC(=O)[C@@H](N)Cc1ccc(Oc2ccnc3[nH]cc(C)c23)cc1` [Example 87, (S)-2-amino-N-(3-methoxylpropyl)-3-(4-((3-methyl-1H-pyrrolo[2,3-b]pyridin-4-yl)oxy)phenyl)propanamide], the pKi in test [1] and in test [2] was over 8.52 each time.

With `COCc1c[nH]c2nccc(Oc3ccc(C[C@H](N)C(=O)NC4CCOCC4)cc3F)c12` [Example 214, (S)-2-amino-3-(3-fluoro-4-((3-(methoxymethyl)-1H-pyrrolo[2,3-b]pyridin-4-yl)oxy)phenyl)-N-(tetrahydro-2H-pyran-4-yl)propanamide], the pKi in test [1] and in test [2] was 7.52 to 8.52 in each case.

As to `COCCCNC(=O)C(N)Cc1ccc(Oc2ccnc3[nH]cc(C)c23)c(F)c1` (stereo not drawn) [Example 68, 2-amino-3-(3-fluoro-4-((3-methyl-1H-pyrrolo[2,3-b]pyridin-4-yl)oxy)phenyl)-N-(3-methoxypropyl)propanamide], the pKi in test [1] and in test [2] was over 8.52 each time.

For `Cc1c[nH]c2nccc(Oc3ccc(C[C@H](N)C(=O)N4CCN(C)C(C)(C)C4)cc3F)c12` [Example 18, (S)-2-amino-3-(3-fluoro-4-((3-methyl-1H-pyrrolo[2,3-b]pyridin-4-yl)oxy)phenyl)-1-(3,3,4-trimethylpiperazin-1-yl)propan-1-one], the pKi in test [1] and in test [2] was over 8.52 each time.

Take `CN(C(=O)[C@@H](N)Cc1ccc(Oc2ccnc3[nH]ccc23)cc1)C1CCCCC1` [Example 101, (S)-3-(4-((1H-pyrrolo[2,3-b]pyridin-4-yl)oxy)phenyl)-2-amino-N-cyclohexyl-N-methylpropanamide]: the pKi in test [1] and in test [2] was 7.52 to 8.52 in each case.

Turning to `Cc1c[nH]c2nccc(Oc3ccc(C[C@H](N)C(=O)NCC4CN(C)C4)cc3F)c12` [Example 47, (S)-2-amino-3-(3-fluoro-4-((3-methyl-1H-pyrrolo[2,3-b]pyridin-4-yl)oxy)phenyl)-N-((1-methylazetidin-3-yl)methyl)propanamide], the negative logarithm of the Ki (pKi) in test [1] and in test [2] was over 8.52 throughout.

Consider `Cc1c[nH]c2ncnc(Oc3ccc(C[C@H](N)C(=O)NCCc4ccncc4)cc3F)c12` [Example 128, (S)-2-amino-3-(3-fluoro-4-((5-methyl-7H-pyrrolo[2,3-d]pyrimidin-4-yl)oxy)phenyl)-N-(2-(pyridin-4-yl)ethyl)propanamide], for which the negative-log Ki (pKi) in test [1] and in test [2] was over 8.52 in each case.

For `N[C@@H](Cc1ccc(Oc2ccnc3[nH]cc(-c4ccccc4)c23)cc1)C(=O)N1CCN(Cc2ccccc2)CC1` [Example 199, (S)-2-amino-1-(4-benzylpiperazin-1-yl)-3-(4-((3-phenyl-1H-pyrrolo[2,3-b]pyridin-4-yl)oxy)phenyl)propan-1-one], the pKi in test [1] and in test [2] was over 8.52 throughout.

On to `N[C@@H](Cc1ccc(Oc2ccnc3[nH]cc(-c4cncs4)c23)cc1)C(=O)N1CCN(Cc2ccccc2)CC1` [Example 196, (S)-2-amino-1-(4-benzylpiperazin-1-yl)-3-(4-((3-(thiazol-5-yl)-1H-pyrrolo[2,3-b]pyridin-4-yl)oxy)phenyl)propan-1-one], for which the pKi in test [1] and in test [2] was over 8.52 throughout.

As for `N[C@H](Cc1ccc(Oc2ccnc3[nH]ccc23)cc1)C(=O)Nc1ccccc1` [Example 110, (R)-3-(4-((1H-pyrrolo[2,3-b]pyridin-4-yl)oxy)phenyl)-2-amino-N-phenylpropanamide], the pKi was under 7.52 in test [1] and 7.52 to 8.52 in test [2].

`CN(C)C(=O)C(Cc1ccc(Oc2ccnc3[nH]ccc23)cc1)NC(=O)C1CCNC1` (stereo not drawn) [Example 178, N-(3-(4-((1H-pyrrolo[2,3-b]pyridin-4-yl)oxy)phenyl)-1-(dimethylamino)-1-oxopropan-2-yl)pyrrolidine-3-carboxamide]: the negative-log Ki (pKi) in test [1] and in test [2] was under 7.52 each time.

`Cc1c[nH]c2nccc(Oc3ccc(C[C@H](N)C(=O)N4CCC(CN(C)C)CC4)cc3F)c12` [Example 45, (S)-2-amino-1-(4-((dimethylamino)methyl)piperidin-1-yl)-3-(3-fluoro-4-((3-methyl-1H-pyrrolo[2,3-b]pyridin-4-yl)oxy)phenyl)propan-1-one]: the pKi in test [1] and in test [2] was over 8.52 throughout.

For `N[C@@H](Cc1ccc(Oc2ccnc3[nH]cc(I)c23)cc1)C(=O)NC1CCCCC1` [Example 190, (S)-2-amino-N-cyclohexyl-3-(4-((3-iodo-1H-pyrrolo[2,3-b]pyridin-4-yl)oxy)phenyl)propanamide], the pKi in test [1] and in test [2] was over 8.52 throughout.

In the case of `N[C@@H](Cc1ccc(Oc2ccnc3[nH]ccc23)cc1)C(=O)NCC1CCCCC1` [Example 107, (S)-3-(4-((1H-pyrrolo[2,3-b]pyridin-4-yl)oxy)phenyl)-2-amino-N-(cyclohexylmethyl)propanamide], the pKi in test [1] and in test [2] was over 8.52 each time.

In the case of `Cc1c[nH]c2ncnc(Oc3ccc(C[C@H](N)C(=O)N4CCN(C5CC5)CC4)cc3F)c12` [Example 119, (S)-2-amino-1-(4-cyclopropylpiperazin-1-yl)-3-(3-fluoro-4-((5-methyl-7H-pyrrolo[2,3-d]pyrimidin-4-yl)oxy)phenyl)propan-1-one], the negative logarithm of the Ki (pKi) in test [1] and in test [2] was over 8.52 each time.

For `Cc1c[nH]c2nccc(Oc3ccc(C[C@H](N)C(=O)NCC4CCN(C)CC4)cc3F)c12` [Example 40, (S)-2-amino-3-(3-fluoro-4-((3-methyl-1H-pyrrolo[2,3-b]pyridin-4-yl)oxy)phenyl)-N-((1-methylpiperidin-4-yl)methyl)propanamide], the pKi was 7.52 to 8.52 in test [1] and over 8.52 in test [2].

`N#Cc1c[nH]c2nccc(Oc3ccc(C[C@H](N)C(=O)NC4CCCCC4)cc3F)c12` [Example 221, (S)-2-amino-3-(4-((3-cyano-1H-pyrrolo[2,3-b]pyridin-4-yl)oxy)-3-fluorophenyl)-N-cyclohexylpropanamide]: the pKi in test [1] and in test [2] was over 8.52 throughout.

As for `Cc1c[nH]c2ncnc(Oc3ccc(C[C@H](N)C(=O)N4CCc5ccccc5C4)cc3F)c12` [Example 124, (S)-2-amino-1-(3,4-dihydroisoquinolin-2(1H)-yl)-3-(3-fluoro-4-((5-methyl-7H-pyrrolo[2,3-d]pyrimidin-4-yl)oxy)phenyl)propan-1-one], the pKi in test [1] and in test [2] was over 8.52 in each case.

With `N[C@@H](Cc1ccc(Oc2ccnc3[nH]cc(Br)c23)c(F)c1)C(=O)N1CCN(Cc2ccccc2)CC1` [Example 187, (S)-2-amino-1-(4-benzylpiperazin-1-yl)-3-(4-((3-bromo-1H-pyrrolo[2,3-b]pyridin-4-yl)oxy)-3-fluorophenyl)propan-1-one], the pKi in test [1] and in test [2] was over 8.52 throughout.

Regarding `NC(Cc1ccc(Oc2ccnc3[nH]ccc23)cc1)C(=O)Nc1ccc(C(F)(F)F)cc1` (single isomer, unassigned) [Example 91A, 3-(4-((1H-pyrrolo[2,3-b]pyridin-4-yl)oxy)phenyl)-2-amino-N-(4-(trifluoromethyl)phenyl)propanamide], the pKi in test [1] and in test [2] was over 8.52 each time.

Take `N#Cc1c[nH]c2nccc(Oc3ccc(C[C@H](N)C(=O)NC4CCCCC4)cc3)c12` [Example 219, (S)-2-amino-3-(4-((3-cyano-1H-pyrrolo[2,3-b]pyridin-4-yl)oxy)phenyl)-N-cyclohexylpropanamide]: the negative-log Ki (pKi) in test [1] and in test [2] was over 8.52 throughout.

Turning to `Cc1c[nH]c2nccc(Oc3ccc(C[C@H](N)C(=O)NC4(C#N)CCCCC4)cc3F)c12` [Example 34, (S)-2-amino-N-(1-cyanocyclohexyl)-3-(3-fluoro-4-((3-methyl-1H-pyrrolo[2,3-b]pyridin-4-yl)oxy)phenyl)propanamide], the pKi in test [1] and in test [2] was over 8.52 in each case.

For `N[C@@H](Cc1ccc(Oc2ccnc3[nH]ccc23)cn1)C(=O)N1CCN(Cc2ccccc2)CC1` [Example 228, (S)-3-(5-((1H-pyrrolo[2,3-b]pyridin-4-yl)oxy)pyridin-2-yl)-2-amino-1-(4-benzylpiperazin-1-yl)propan-1-one], the negative logarithm of the Ki (pKi) is under 7.52 in test [1] and 7.52 to 8.52 in test [2].

On to `CN(C)CCNC(=O)[C@@H](N)Cc1ccc(Oc2ccnc3[nH]ccc23)cc1` [Example 95, (S)-3-(4-((1H-pyrrolo[2,3-b]pyridin-4-yl)oxy)phenyl)-2-amino-N-(2-(dimethylamino)ethyl)propanamide], for which the pKi in test [1] and in test [2] was under 7.52 in each case.

For the compound `Cc1c[nH]c2nccc(Oc3ccc(C[C@H](N)C(=O)N4C[C@@H]5C[C@H]4CN5Cc4ccccc4)cc3F)c12` [Example 24, (S)-2-amino-1-((1S,4S)-5-benzyl-2,5-diazabicyclo[2.2.1]heptan-2-yl)-3-(3-fluoro-4-((3-methyl-1H-pyrrolo[2,3-b]pyridin-4-yl)oxy)phenyl)propan-1-one], the pKi in test [1] and in test [2] was over 8.52 each time.

Consider `NC(Cc1ccc(Oc2ccnc3[nH]ccc23)cc1)C(=O)Nc1ccc(C(F)(F)F)cc1` (stereo not drawn) [Example 91, 3-(4-((1H-pyrrolo[2,3-b]pyridin-4-yl)oxy)phenyl)-2-amino-N-(4-(trifluoromethyl)phenyl)propanamide], for which the pKi is 7.52 to 8.52 in test [1] and over 8.52 in test [2].
